Test system: HeLa cells
Experiment: Cytosolic entry of NF-labelled peptides by flow cytometry
Type: cell-based
Conditions: 5 μM, 2 h, inversion of configuration of Arg-9 or Nal-4 of peptide 4

| Substance | fold higher cytosolic entry activity relative to peptide 4 [fold] |
| --- | --- |
| cyclo(AAFΦRpPRrFAAAQ)-miniPEG-K(NF) [compound 7] | 1.7 |
| cyclo(AAFϕRpPRRFAAAQ)-miniPEG-K(NF) [compound 8] | 2.3 |
